Results: publication PMC8908036, “N-Acetyldopamine dimers from Oxya chinensis sinuosa attenuates lipopolysaccharides induced inflammation and inhibits cathepsin C activity” (Computational and Structural Biotechnology Journal, 2022)

Biological target: T1, cathepsin C (Mus musculus, UniProt P97821)
T1 construct: gene Ctsc
Assay: colorimetric enzyme inhibition with H-Gly-Phe-β-naphthylamide; Lineweaver-Burk kinetics and secondary plots (IC50 […]; Kis […])
Type: biochemical

T1 sequence (P97821 25-134): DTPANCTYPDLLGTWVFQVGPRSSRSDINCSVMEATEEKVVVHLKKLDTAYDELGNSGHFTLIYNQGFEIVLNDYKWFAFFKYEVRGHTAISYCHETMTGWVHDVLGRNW
T1 sequence (P97821 231-462): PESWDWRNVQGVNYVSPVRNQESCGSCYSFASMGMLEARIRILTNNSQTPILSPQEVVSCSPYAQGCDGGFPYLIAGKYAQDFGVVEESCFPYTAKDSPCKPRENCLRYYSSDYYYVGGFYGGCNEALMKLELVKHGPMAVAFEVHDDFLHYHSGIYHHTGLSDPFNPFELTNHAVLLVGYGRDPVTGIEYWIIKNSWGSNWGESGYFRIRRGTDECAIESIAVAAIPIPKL

CC(=O)NCCc1ccc2c(c1)O[C@H](c1ccc(O)c(O)c1)[C@@H](NC(C)=O)O2 [compound 1, (2R,3S)-2-(3′,4′-dihydroxyphenyl)-3-acetylamino-7-(N-acetyl-2″-aminoethyl)-1,4-benzodioxane]
Ki: 71.6 ± 10.2 µM
